What was measured:
[1] = MTT assay in H1299 cells; type: cell-based; conditions: human, H1299 cells (H1299/PhTERT-driven SEAP reporter system), H1299, read-out: MTT (Inhibition μM ± SD); for viability at 24 h, 1 µM: compound concentration 1 μM; for viability at 24 h, 10 µM: compound concentration 10 μM; for viability at 24 h, 100 µM: compound concentration 100 μM
Experimental: H1299 is a non-small cell lung cancer cell line with telomerase activity. The cell extract of H1299 cell lines can be used for selecting the telomerase activity inhibitors in vitro and the telomerase activity-inhibited substances in vivo. H1299 cell line was incubated with RPMI 1640 medium supplemented with 10% of fetal bovine serum (FBS). A total of 2×10^3 […] cells were seeded in the 96-well cell culture plate, and incubated with DMEM (GIBCO®)/glucose mixture and Medium 199 (GIBCO®)/10% FBS/1 mM sodium pyruvate (GIBCO®)/4 mM L-glutamine (GIBCO®) mixture at a ratio of 4:1 at 37° C. for 24 hours. […] After 48 hours of drug treatment, the cultured medium were collected for performing the analysis of SEAP activity. The cells were washed with 1×PBS once immediately, and the MTT assay was performed to compare the compounds with the relative toxicity or the influence to the proliferation and activity. Mitochondria is the place for cellular respiration, and there are many reductive reactions catalyzed by dehydrogenases. MTT is a water-soluble yellow compound, and the […] will be formed after reduction. This crystal can be dissolved in the organic solvent, and has high absorbance at the wavelength of 570 nm. The higher cellular activity or more cell numbers, the more generated crystal violets. Therefore, the cellular activity and cell number can be obtained by the MTT assay. MTT solution was prepared by dissolving MTT powder in PBS solution to achieve 5 mg/ml, filtrated and stored at 4° C. Lysis buffer contained 20% (w/v) of SDS in 50% of N,N-dimethylformamide (DMF, Riedel-deHaën). After the cells were incubated in the 96-well culture plate, the original medium was discarded, 100 μl of the fresh serum-free medium per well and 25 μl of MTT solution per well were added in respectively, and the cells were further incubated in the CO2 incubator at 37° C. for 4 hours. Then, 100 μl of lysis buffer per well was added in and incubated overnight in the CO2 incubator at 37° C. The absorbance at 570 nm was determined by the ELISA reader. The selection of telomerase inhibitors of the anthraquinone compounds provided in the present invention was performed by the […]-driven SEAP system. SEAP is the communication gene in this drug selection model. The SEAP inhibition was shown as follows. […] Subsequently, the linear slope of absorbance to the measuring time was calculated, and the variance of absorbance at 405 nm per minute was represented and compared with the SEAP-producing result of drug-untreated H1299 cells. In addition, the influence of the cell-treated drug solution to the cellular proliferation and the drug toxicity to the cells were considered, and the cellular growth was evaluated by the MTT assay. The drug-treated cells were analyzed by the SEAP assay and the data analysis of MTT assay at the same time. Both results were compared so as to delete the influence of cell number or the activity to SEAP, and the dose-dependent phenomenon could be anticipated in the range of drug concentration designed by the laboratory. […] Since the chemically-synthetic drugs have colors thereon, the SEAP value of drug-treatment without cells was also determined to be the background value which was deducted while treating with the drugs. The candidate drug for inhibiting telomerase on the hTERT gene expression level was evaluated and anticipated.

[2] = MTT assay in BJ1 cells; type: cell-based; conditions: human, hTERT-BJ1-PTERT(3.4)-SEAP cells, BJ1, read-out: MTT (Inhibition μM ± SD); for viability at 48 h, 1 µM: compound concentration 1 μM; for viability at 48 h, 10 µM: compound concentration 10 μM; for viability at 48 h, 100 µM: compound concentration 100 μM
Experimental: A total of 2×10^3 […] cells were seeded in the 96-well cell culture plate, and incubated with DMEM (GIBCO®)/glucose mixture and Medium 199 (GIBCO®)/10% FBS/1 mM sodium pyruvate (GIBCO®)/4 mM L-glutamine (GIBCO®) mixture at a ratio of 4:1 at 37° C. for 24 hours. […] After 48 hours of drug treatment, the cultured medium were collected for performing the analysis of SEAP activity. The cells were washed with 1×PBS once immediately, and the MTT assay was performed to compare the compounds with the relative toxicity or the influence to the proliferation and activity. Mitochondria is the place for cellular respiration, and there are many reductive reactions catalyzed by dehydrogenases. MTT is a water-soluble yellow compound, and the […] will be formed after reduction. This crystal can be dissolved in the organic solvent, and has high absorbance at the wavelength of 570 nm. The higher cellular activity or more cell numbers, the more generated crystal violets. Therefore, the cellular activity and cell number can be obtained by the MTT assay. MTT solution was prepared by dissolving MTT powder in PBS solution to achieve 5 mg/ml, filtrated and stored at 4° C. Lysis buffer contained 20% (w/v) of SDS in 50% of N,N-dimethylformamide (DMF, Riedel-deHaën). After the cells were incubated in the 96-well culture plate, the original medium was discarded, 100 μl of the fresh serum-free medium per well and 25 μl of MTT solution per well were added in respectively, and the cells were further incubated in the CO2 incubator at 37° C. for 4 hours. Then, 100 μl of lysis buffer per well was added in and incubated overnight in the CO2 incubator at 37° C. The absorbance at 570 nm was determined by the ELISA reader.

| Structure (SMILES) | viability at 24 h, 1 µM [1] | viability at 24 h, 10 µM [1] | viability at 24 h, 100 µM [1] | viability at 48 h, 1 µM [2] | viability at 48 h, 10 µM [2] | viability at 48 h, 100 µM [2] |
| --- | --- | --- | --- | --- | --- | --- |
| CC(C)CNCC(=O)Nc1ccc2c(c1)C(=O)c1cc(NC(=O)CNCC(C)C)ccc1C2=O [Compound 14, 2,7-Bis[2-(isobutylamino)acetamido]anthraquinone] | 108 ± 8% | 39 ± 10% | 11 ± 5% | 107 ± 3% | 37% | 39% |
| O=C(CCCl)Nc1ccc2c(c1)C(=O)c1cc(NC(=O)CCCl)ccc1C2=O [Compound 15, 2,7-Bis(3-chloropropionamido)anthraquinone] | 77 ± 13% | 44 ± 15% | 29 ± 11% | 77 ± 2% | 65 ± 1% | 39 ± 1% |
| CCCCNCCC(=O)Nc1ccc2c(c1)C(=O)c1cc(NC(=O)CCNCCCC)ccc1C2=O [Compound 17, 2,7-Bis[3-(butylamino)propionamido]anthraquinone] | 82 ± 12% | 52 ± 4% | 14 ± 10% | 80 ± 3% | 70 ± 1% | 40% |
| O=C(CCN1CCCCC1)Nc1ccc2c(c1)C(=O)c1cc(NC(=O)CCN3CCCCC3)ccc1C2=O [Compound 19, 2,7-Bis[3-(piperidino)propionamido]anthraquinone] | 87 ± 15% | 44 ± 7% | 18 ± 9% | 92 ± 6% | 54 ± 2% | 41 ± 2% |
| CCCNCCC(=O)Nc1ccc2c(c1)C(=O)c1cc(NC(=O)CCNCCC)ccc1C2=O [Compound 21, 2,7-Bis[3-(propylamino)propionamido]anthraquinone] | 80 ± 15% | 50 ± 6% | 13 ± 10% | 75 ± 1% | 65 ± 2% | 38 ± 2% |
| CCNCCC(=O)Nc1ccc2c(c1)C(=O)c1cc(NC(=O)CCNCC)ccc1C2=O [Compound 22, 2,7-Bis[3-(ethylamino)propionamido]anthraquinone] | 86 ± 10% | 59 ± 3% | 34 ± 7% | 82 ± 2% | 73 ± 3% | 42 ± 1% |
| CN1CCN(CCC(=O)Nc2ccc3c(c2)C(=O)c2cc(NC(=O)CCN4CCN(C)CC4)ccc2C3=O)CC1 [Compound 23, 2,7-Bis[3-(N-methylpiperazino)propionamido]anthraquinone] | 95 ± 18% | 80 ± 15% | 39 ± 6% | 95 ± 2% | 80 ± 2% | 61 ± 1% |
| O=C(CCN1CCNCC1)Nc1ccc2c(c1)C(=O)c1cc(NC(=O)CCN3CCNCC3)ccc1C2=O [Compound 24, 2,7-Bis[3-(piperazino)propionamido]anthraquinone] | 97 ± 8% | 94 ± 8% | 102 ± 13% | 96 ± 2% | 100 ± 3% | 88 ± 4% |
| O=C(CCCCl)Nc1ccc2c(c1)C(=O)c1cc(NC(=O)CCCCl)ccc1C2=O [Compound 25, 2,7-Bis(4-chlorobutyramido)anthraquinone] | 84 ± 18% | 40 ± 2% | 22 ± 2% | 72 ± 3% | 62 ± 2% | 58 ± 3% |

— patent US20090253709A1 (NATIONAL DEFENSE MEDICAL CENTER, priority 2008, published 2009)
